Source: ChEMBL document CHEMBL5506059, “Cyanomethylquinolones as a New Class of Potential Multitargeting Broad-Spectrum Antibacterial Agents” (J Med Chem, 2024)
Values after ≈ are worked out from the molar mass of the structure shown. Active and inactive are the calls of the source. The calls are words filed in the database; no cut-off is given here.

Tests used:
Staphylococcus aureus [1] = experiment: Antibacterial activity against methicillin resistant Staphylococcus aureus infected in female ICR mouse assessed as log reduction in bacterial load at 20 mg/kg pre-infected with bacteria for 24 hrs followed by compound administration on wound site every 6 hrs for 2 times and measured 36 hrs post infection; format: functional; conditions: time 12 hrs
Pseudomonas aeruginosa [2] = experiment: Potency index, ratio of clinafloxacin MIC to test compound MIC for antibacterial activity against Pseudomonas aeruginosa clinical isolate assessed as inhibition of bacterial growth incubated for 24 hrs; format: functional
Enterococcus faecalis [3] = experiment: Antibacterial activity against vancomycin-resistant Enterococcus faecalis clinical isolate p1-2007225053 assessed as inhibition of bacterial growth incubated for 24 hrs; format: functional
Enterococcus faecalis [4] = experiment: Antibacterial activity against Enterococcus faecalis clinical isolate assessed as inhibition of bacterial growth incubated for 24 hrs; format: functional
Klebsiella pneumoniae = experiment: Antibacterial activity against Klebsiella pneumoniae clinical isolate assessed as inhibition of bacterial growth incubated for 24 hrs; format: functional
Staphylococcus aureus [5] = experiment: Antibiofilm activity in methicillin resistant Staphylococcus aureus assessed as biofilm eradication measured after 24 hrs by crystal violet staining based analysis; format: functional, organism-based; conditions: dose 1-2 µg/ml
Staphylococcus aureus [6] = experiment: Antibacterial activity against methicillin resistant Staphylococcus aureus clinical isolate assessed as inhibition of bacterial growth incubated for 24 hrs; format: functional
Streptococcus pyogenes [7] = experiment: Potency index, ratio of ciprofloxacin MIC to test compound MIC for antibacterial activity against Streptococcus pyogenes ATCC 19615 assessed as inhibition of bacterial growth incubated for 24 hrs; format: functional
Staphylococcus aureus [8] = experiment: Induction of morphological changes in methicillin resistant Staphylococcus aureus assessed as appearance of blurred intracellular boundaries with disintegration of bacterial structure at 2 ug/ml incubated for 3 hrs by SEM analysis; format: functional, organism-based; conditions: dose 2.0 µg/ml
Pseudomonas aeruginosa [9] = experiment: Antibacterial activity against Pseudomonas aeruginosa clinical isolate assessed as inhibition of bacterial growth incubated for 24 hrs; format: functional
Staphylococcus aureus [10] = experiment: Potency index, ratio of clinafloxacin MIC to test compound MIC for antibacterial activity against Staphylococcus aureus clinical isolate assessed as inhibition of bacterial growth incubated for 24 hrs; format: functional
Staphylococcus aureus [11] = experiment: Antibacterial activity against Staphylococcus aureus ATCC 29213 assessed as inhibition of bacterial growth incubated for 24 hrs; format: functional
Enterococcus faecalis [12] = experiment: Potency index, ratio of ciprofloxacin MIC to test compound MIC for antibacterial activity against vancomycin-resistant Enterococcus faecalis clinical isolate p1-2007225053 assessed as inhibition of bacterial growth incubated for 24 hrs; format: functional
Enterococcus faecium = experiment: Antibacterial activity against Enterococcus faecium ATCC 19434 assessed as inhibition of bacterial growth incubated for 24 hrs; format: functional
Pseudomonas aeruginosa [13] = experiment: Induction of intracellular ROS generation in Pseudomonas aeruginosa assessed as increase in fluorescence intensity at 2 ug/ml incubated for 6 hrs by DCFH-DA dye based fluorescence analysis; format: functional, organism-based; conditions: dose 2.0 µg/ml
Cell membrane [14] = experiment: Induction of cell membrane depolarization in methicillin-resistant Staphylococcus aureus assessed as increase in fluorescence intensity at 1 ug/ml measured for 30 mins by DiSC35 dye based fluorescence analysis; format: cell membranes; conditions: dose 1.0 µg/ml
Cell membrane [15] = experiment: Induction of cell membrane damage in Pseudomonas aeruginosa assessed as increase in nucleic acid leakage at 0 to 2 ug/ml incubated for 12 hrs by optical density based microplate reader analysis; format: cell membranes; conditions: dose 0-2 µg/ml
Staphylococcus aureus [16] = experiment: Potency index, ratio of norfloxacin MIC to test compound MIC for antibacterial activity against Staphylococcus aureus clinical isolate assessed as inhibition of bacterial growth incubated for 24 hrs; format: functional
Staphylococcus aureus [17] = experiment: Antibacterial activity against methicillin-resistant Staphylococcus aureus ATCC 43300 assessed as inhibition of bacterial growth incubated for 24 hrs; format: functional
Erythrocyte = experiment: Hemolytic activity in human Red blood cells assessed as concentration required for 5% hemolysis measured after 1.5 hrs by absorbance based assay; format: toxicity, cell-based
Streptococcus pyogenes [18] = experiment: Potency index, ratio of norfloxacin MIC to test compound MIC for antibacterial activity against Streptococcus pyogenes ATCC 19615 assessed as inhibition of bacterial growth incubated for 24 hrs; format: functional
HUVEC = experiment: Cytotoxicity against HUVEC cells assessed as reduction in cell viability at 0.78 to 25 ug/ml measured after 24 hrs by MTT assay; format: toxicity, cell-based; conditions: human, dose 0.78-25 µg/ml
Staphylococcus aureus [19] = experiment: Potency index, ratio of ciprofloxacin MIC to test compound MIC for antibacterial activity against Staphylococcus aureus clinical isolate assessed as inhibition of bacterial growth incubated for 24 hrs; format: functional
Pseudomonas aeruginosa [20] = experiment: Induction of intracellular ROS generation in Pseudomonas aeruginosa assessed as increase in fluorescence intensity at 2 ug/ml incubated for 6 hrs in presence of N-acetyl-L-cysteine by DCFH-DA dye based fluorescence analysis; format: functional, organism-based; conditions: dose 2.0 µg/ml
Pseudomonas aeruginosa [21] = experiment: Antibiofilm activity in Pseudomonas aeruginosa assessed as biofilm eradication measured after 24 hrs by crystal violet staining based analysis; format: functional, organism-based; conditions: dose 1-2 µg/ml
Staphylococcus aureus [22] = experiment: Antibacterial activity against ciprofloxacin-treated Staphylococcus aureus ATCC 6538 assessed as inhibition of bacterial growth measured after 24 hrs; format: functional
Cell membrane [23] = experiment: Induction of cell membrane permeability in methicillin-resistant Staphylococcus aureus assessed as increase in fluorescence intensity at 1 to 2 ug/ml incubated for 6 hrs by PI staining based fluorescence analysis; format: cell membranes; conditions: dose 1-2 µg/ml
Cell membrane [24] = experiment: Induction of cell membrane depolarization in Pseudomonas aeruginosa assessed as increase in fluorescence intensity at 1 ug/ml measured for 30 mins by DiSC35 dye based fluorescence analysis; format: cell membranes; conditions: dose 1.0 µg/ml
Pseudomonas aeruginosa [25] = experiment: Potency index, ratio of norfloxacin MIC to test compound MIC for antibacterial activity against Pseudomonas aeruginosa clinical isolate assessed as inhibition of bacterial growth incubated for 24 hrs; format: functional
[26] = tested on: Staphylococcus epidermidis; experiment: Antibacterial activity against Staphylococcus epidermidis ATCC 12228 assessed as inhibition of bacterial growth incubated for 24 hrs; format: functional
Staphylococcus aureus [27] = experiment: Antibacterial activity against Staphylococcus aureus clinical isolate assessed as inhibition of bacterial growth incubated for 24 hrs; format: functional
[28] = Cytotoxicity against HUVEC cells assessed as cell viability at 25 ug/ml measured after 24 hrs by MTT assay relative to control; format: toxicity, cell-based; conditions: human, at 25 µg/mL, read-out: Activity
Pseudomonas aeruginosa [29] = experiment: Potency index, ratio of ciprofloxacin MIC to test compound MIC for antibacterial activity against Pseudomonas aeruginosa clinical isolate assessed as inhibition of bacterial growth incubated for 24 hrs; format: functional
Staphylococcus aureus [30] = experiment: Antibacterial activity against methicillin resistant Staphylococcus aureus assessed as reduction in metabolic activity by measuring reduction in fluorescence intensity at 0.5 to 2 times MIC incubated for 6 hrs by alamar blue assay; format: functional, organism-based
Pseudomonas aeruginosa [31] = experiment: Antibacterial activity against Pseudomonas aeruginosa assessed as reduction in metabolic activity by measuring reduction in fluorescence intensity at 0.5 to 2 times MIC incubated for 6 hrs by alamar blue assay; format: functional, organism-based
Cell membrane [32] = experiment: Induction of cell membrane permeability in Pseudomonas aeruginosa assessed as increase in fluorescence intensity at 1 to 2 ug/ml incubated for 6 hrs by PI staining based fluorescence analysis; format: cell membranes; conditions: dose 1-2 µg/ml
Staphylococcus aureus [33] = experiment: Antibacterial activity against methicillin resistant Staphylococcus aureus infected in female ICR mouse assessed as log reduction in bacterial load at 10 mg/kg pre-infected with bacteria for 24 hrs followed by compound administration on wound site every 6 hrs for 2 times and measured 36 hrs post infection; format: functional; conditions: time 12 hrs
Staphylococcus aureus [34] = experiment: Resistance development in methicillin resistant Staphylococcus aureus assessed as increase in MIC measured after 20 days; format: functional, organism-based; conditions: time 20.0 day
Pseudomonas aeruginosa [35] = experiment: Resistance development in Pseudomonas aeruginosa assessed as increase in MIC measured after 20 days; format: functional, organism-based; conditions: time 20.0 day

For N#CCc1cc2c(cc1F)c(=O)c(C(=O)O)cn2C1CC1, which “log(activity)” value (Staphylococcus aureus [1]) is on record?
Its value is about 4.

And the Ratio (Pseudomonas aeruginosa [2])?
The Ratio was 2.

What about the MIC (Enterococcus faecalis [3]) of the same molecule?
Its MIC is 0.125 µg/mL (≈ 0.437 µM).

And the MIC (Enterococcus faecalis [4])?
The MIC was 4 µg/mL (≈ 14 µM).

What about the MIC (Klebsiella pneumoniae) of the same molecule?
The MIC was 1 µg/mL (≈ 3.49 µM).

What about the Activity (Staphylococcus aureus [5]) of the same molecule?
Its Activity is “Dose-Dependent Effect”.

What about the MIC (Staphylococcus aureus [6]) of the same molecule?
The MIC was 0.5 µg/mL (≈ 1.75 µM).

And the Ratio (Streptococcus pyogenes [7])?
The Ratio was 64.

And the Activity (Staphylococcus aureus [8])?
Its Activity is “Active”.

What about the MIC (Pseudomonas aeruginosa [9]) of the same molecule?
The MIC was 0.25 µg/mL (≈ 0.873 µM).

What about the Ratio (Staphylococcus aureus [10]) of the same molecule?
Its Ratio is 2.

And the MIC (Staphylococcus aureus [11])?
Its MIC is 1 µg/mL (≈ 3.49 µM).

And the Ratio (Enterococcus faecalis [12])?
The Ratio was 2.

What about the MIC (Enterococcus faecium) of the same molecule?
The MIC was 2 µg/mL (≈ 6.99 µM).

What about the Activity (Pseudomonas aeruginosa [13]) of the same molecule?
The Activity was “Active”.

And the Activity (Cell membrane [14])?
Its Activity is “Active”.

What about the Activity (Cell membrane [15]) of the same molecule?
The Activity was “Active”.

And the Ratio (Staphylococcus aureus [16])?
The Ratio was 32.

And the MIC (Staphylococcus aureus [17])?
Its MIC is 0.5 µg/mL (≈ 1.75 µM).

What about the HC5 (Erythrocyte) of the same molecule?
The HC5 was over 10000 µg/mL.

What about the Ratio (Streptococcus pyogenes [18]) of the same molecule?
The Ratio was 128.

What about the Activity (HUVEC) of the same molecule?
Its Activity is “Non-Toxic”.

And the Ratio (Staphylococcus aureus [19])?
The Ratio was 8.

And the Activity (Pseudomonas aeruginosa [20])?
The Activity was “inactive”.

What about the Activity (Pseudomonas aeruginosa [21]) of the same molecule?
Its Activity is “Dose-Dependent Effect”.

And the MIC (Staphylococcus aureus [22])?
Its MIC is 8 µg/mL (≈ 27.9 µM).

And the Activity (Cell membrane [23])?
The Activity was “Active”.

And the Activity (Cell membrane [24])?
The Activity was “Active”.

And the Ratio (Pseudomonas aeruginosa [25])?
Its Ratio is 32.

What about the MIC [26] of the same molecule?
Its MIC is 0.5 µg/mL (≈ 1.75 µM).

And the MIC (Staphylococcus aureus [27])?
Its MIC is 0.25 µg/mL (≈ 0.873 µM).

And the viability at 24 h, 25 ug/ml [28]?
The viability at 24 h, 25 ug/ml was over 90%.

What about the Ratio (Pseudomonas aeruginosa [29]) of the same molecule?
Its Ratio is 8.

What about the Activity (Staphylococcus aureus [30]) of the same molecule?
Its Activity is “Active”.

What about the Activity (Pseudomonas aeruginosa [31]) of the same molecule?
Its Activity is “Active”.

And the Activity (Cell membrane [32])?
Its Activity is “Active”.

And the “log(activity)” value (Staphylococcus aureus [33])?
The value was about 2.5.

What about the Activity (Staphylococcus aureus [34]) of the same molecule?
Its Activity is “inactive”.

And the Activity (Pseudomonas aeruginosa [35])?
The Activity was “inactive”.
